# Experimental data published in patent publication US12522596B2, “Compounds as GLP-1R agonists” (Terns Pharmaceuticals, Inc., priority 2021, dated 2026).
# Read-outs that look alike come from different tables or passages of the source.
# Experiment: Pharmacokinetics in hGLP-1R mice after oral dosing
# Format: in vivo, male C57BL/6J hGLP-1R mouse
# Conditions: male, C57BL/6J hGLP-1R, mouse, plasma, po; for AUC0-inf: read-out: AUC0-inf; for MRT inf: read-out: MRT0-inf; for MRT last: read-out: MRT0-last; for concentration at 120 min: hGLP-1R mouse plasma collected at 120 min (IPGTT cohort)
# Description: IPGTT (120 min)—PK bleeding: 40 μL blood samples (all treatment groups) were collected from mice under the jaw at IPGTT-120 min after blood glucose measurement into pre-chilled EDTA-2K tubes. Blood samples were processed for plasma by centrifugation at 4° C., 3200×g for 10 min. 15 μL plasma was stored at −80° C. for PK analysis. From 4 mice in Group 7 of the PD cohort, whole brain was collected after blood is harvested at 120 min post dose, rinsed with saline and patted dry and placed into a pre-weighed tube and stored at −80° C. collected for PK analysis.
# PK bleeding group design is described in Table 9.
# PK bleeding: 30 μL blood was collected at 0.25, 0.5, 1, 2, 4, and 8 h. Blood samples were processed for plasma by centrifugation at 4° C., 3200×g for 10 min. 12 μL plasma was collected at −80° C. for further analysis. From 3 mice in Group 7 of the PK cohort, whole brain was collected after blood is harvested at 8 hr post dose, rinsed with saline and patted dry and placed into a pre-weighed tube and stored at −80° C. collected for PK analysis.
# For plasma: An aliquot of 3 μL sample was protein precipitated with 60 μL internal standard (100 ng/mL Labetalol & 100 ng/ml Dexamethasone & 100 ng/ml Tolbutamide & 100 ng/mL Verapamil & 100 ng/ml Glyburide & 100 ng/ml Celecoxib in ACN) and then the mixture was vortex-mixed for 10 min at 800 rpm and centrifuged for 15 min at 3220×g, 4° C.
# The linear/log trapezoidal rule was applied in obtaining the PK parameters. Individual plasma concentration values that were below the lower limit of quantitation (LOQ) were excluded from the PK parameter calculation. The nominal dose levels and nominal sampling times were used in the calculation of all pharmacokinetic parameters.
# [1] = 0.3 mg/kg, hGLP-1R mouse plasma, PO 0.3 mg/kg, read-out: Mean Concentration
# [2] = 0.3 mg/kg, hGLP-1R mouse plasma, PO 0.3 mg/kg, individual animals, read-out: Concentration
# [3] = 0.3 mg/kg, hGLP-1R mouse plasma, PO 0.3 mg/kg, mean
# [4] = 1 mg/kg, hGLP-1R mouse plasma, PO 1 mg/kg, individual animals, read-out: Concentration
# [5] = 1 mg/kg, hGLP-1R mouse plasma, PO 1 mg/kg, read-out: Mean Concentration
# [6] = 1 mg/kg, hGLP-1R mouse plasma, PO 1 mg/kg, individual mice
# [7] = 1 mg/kg, hGLP-1R mouse plasma, PO 1 mg/kg, mean
# [8] = 3 mg/kg, hGLP-1R mouse plasma, PO 3 mg/kg, read-out: Mean Concentration
# [9] = 3 mg/kg, hGLP-1R mouse plasma, PO 3 mg/kg, mean
compound,measurement,setting,value
N#Cc1ccc(COc2cccc(C3CCN(Cc4nc5ccc(C(=O)O)cc5n4Cc4cncs4)CC3)n2)c(F)c1 [Compound 2],concentration at 0.5 h,[1],80.6 ng/mL
same,concentration at 1 h,[2],43.3 ng/mL
same,concentration at 1 h,[1],49.4 ng/mL
same,concentration at 2 h,"0.3 mg/kg, hGLP-1R mouse plasma, PO 0.3 mg/kg",10.6 ng/mL
same,concentration at 4 h,[1],3.74 ng/mL
same,concentration at 8 h,[2],2.34 ng/mL
same,concentration at 8 h,[1],1.99 ng/mL
same,AUC0-inf,"0.3 mg/kg, hGLP-1R mouse plasma, PO 0.3 mg/kg, individual mice",124 ng·h/mL
same,AUC(0-t),"0.3 mg/kg, hGLP-1R mouse plasma, PO 0.3 mg/kg, individual mice, read-out: AUC0-last",117 ng·h/mL
same,Cmax,"0.3 mg/kg, hGLP-1R mouse plasma, PO 0.3 mg/kg, individual mice, read-out: Cmax",63.4 ng/mL
same,Tmax,"0.3 mg/kg, hGLP-1R mouse plasma, PO 0.3 mg/kg, individual mice, read-out: Tmax",30 min
same,AUC0-inf,[3],111 ng·h/mL
same,AUC(0-t),"0.3 mg/kg, hGLP-1R mouse plasma, PO 0.3 mg/kg, mean, read-out: AUC0-last",107 ng·h/mL
same,Cmax,"0.3 mg/kg, hGLP-1R mouse plasma, PO 0.3 mg/kg, mean, read-out: Cmax",82.7 ng/mL
same,MRT inf,[3],1.7 h
same,MRT last,[3],1.4 h
same,half-life,"0.3 mg/kg, hGLP-1R mouse plasma, PO 0.3 mg/kg, mean, read-out: T1/2 (converted)",84 min
same,Tmax,"0.3 mg/kg, hGLP-1R mouse plasma, PO 0.3 mg/kg, mean, read-out: Tmax",25 min
same,AUC(0-t),"1 mg/kg, hGLP-1R mice, total, PO 1.0 mg/kg, read-out: AUClast Mean",390 ng·h/mL
same,Cmax,"1 mg/kg, hGLP-1R mice, total, PO 1.0 mg/kg, read-out: Cmax Mean",283 ng/mL
same,half-life,"1 mg/kg, hGLP-1R mice, total, PO 1.0 mg/kg, read-out: T1/2 (converted)",85.2 min
same,Tmax,"1 mg/kg, hGLP-1R mice, total, PO 1.0 mg/kg, read-out: Tmax Median",30 min
same,concentration at 120 min,"1 mg/kg, PO 1 mg/kg, read-out: Mean Concentration",69.8 ng/mL
same,concentration at 0.25 h,[4],320 ng/mL
same,concentration at 0.25 h,[5],251 ng/mL
same,concentration at 0.5 h,[4],329 ng/mL
same,concentration at 0.5 h,[5],283 ng/mL
same,concentration at 1 h,[4],252 ng/mL
same,concentration at 1 h,[5],197 ng/mL
same,concentration at 2 h,"1 mg/kg, hGLP-1R mouse plasma, PO 1 mg/kg",48.6 ng/mL
same,concentration at 4 h,[4],7.58 ng/mL
same,concentration at 4 h,[5],7.51 ng/mL
same,concentration at 8 h,[5],4.73 ng/mL
same,AUC0-inf,[6],507 ng·h/mL
same,AUC(0-t),"1 mg/kg, hGLP-1R mouse plasma, PO 1 mg/kg, individual mice, read-out: AUC0-last",498 ng·h/mL
same,Cmax,"1 mg/kg, hGLP-1R mouse plasma, PO 1 mg/kg, individual mice, read-out: Cmax",329 ng/mL
same,MRT inf,[6],1.47 h
same,MRT last,[6],1.32 h
same,half-life,"1 mg/kg, hGLP-1R mouse plasma, PO 1 mg/kg, individual mice, read-out: T1/2 (converted)",76.8 min
same,Tmax,"1 mg/kg, hGLP-1R mouse plasma, PO 1 mg/kg, individual mice, read-out: Tmax",30 min
same,AUC0-inf,[7],400 ng·h/mL
same,AUC(0-t),"1 mg/kg, hGLP-1R mouse plasma, PO 1 mg/kg, mean, read-out: AUC0-last",390 ng·h/mL
same,Cmax,"1 mg/kg, hGLP-1R mouse plasma, PO 1 mg/kg, mean, read-out: Cmax",283 ng/mL
same,MRT inf,[7],1.57 h
same,MRT last,[7],1.35 h
same,half-life,"1 mg/kg, hGLP-1R mouse plasma, PO 1 mg/kg, mean, read-out: T1/2 (converted)",85.2 min
same,Tmax,"1 mg/kg, hGLP-1R mouse plasma, PO 1 mg/kg, mean, read-out: Tmax",30 min
same,Tmax,"3 mg/kg, hGLP-1R mice, oral, across the doses tested (0.3, 1 and, for Compound 2, 3 mg/kg), read-out: median Tmax",30 min
same,AUC(0-t),"3 mg/kg, hGLP-1R mice, total, PO 3.0 mg/kg, read-out: AUClast Mean",2440 ng·h/mL
same,Cmax,"3 mg/kg, hGLP-1R mice, total, PO 3.0 mg/kg, read-out: Cmax Mean",1820 ng/mL
same,half-life,"3 mg/kg, hGLP-1R mice, total, PO 3.0 mg/kg, read-out: T1/2 (converted)",122 min
same,Tmax,"3 mg/kg, hGLP-1R mice, total, PO 3.0 mg/kg, read-out: Tmax Median",30 min
same,concentration at 120 min,"3 mg/kg, PO 3 mg/kg, read-out: Mean Concentration",277 ng/mL
same,concentration at 0.25 h,[8],1570 ng/mL
same,concentration at 0.5 h,[8],1790 ng/mL
same,concentration at 1 h,[8],990 ng/mL
same,concentration at 2 h,"3 mg/kg, hGLP-1R mouse plasma, PO 3 mg/kg",304 ng/mL
same,concentration at 4 h,[8],84.4 ng/mL
same,concentration at 8 h,"3 mg/kg, hGLP-1R mouse plasma, PO 3 mg/kg, individual animals, read-out: Concentration",92.1 ng/mL
same,concentration at 8 h,[8],47.5 ng/mL
same,MRT last,"3 mg/kg, hGLP-1R mouse plasma, PO 3 mg/kg, individual mice",2.04 h
same,Tmax,"3 mg/kg, hGLP-1R mouse plasma, PO 3 mg/kg, individual mice, read-out: Tmax",30 min
same,AUC0-inf,[9],2620 ng·h/mL
same,AUC(0-t),"3 mg/kg, hGLP-1R mouse plasma, PO 3 mg/kg, mean, read-out: AUC0-last",2440 ng·h/mL
same,Cmax,"3 mg/kg, hGLP-1R mouse plasma, PO 3 mg/kg, mean, read-out: Cmax",1820 ng/mL
same,MRT inf,[9],2.64 h
same,MRT last,[9],1.66 h
same,half-life,"3 mg/kg, hGLP-1R mouse plasma, PO 3 mg/kg, mean, read-out: T1/2 (converted)",122 min
same,Tmax,"3 mg/kg, hGLP-1R mouse plasma, PO 3 mg/kg, mean, read-out: Tmax",25 min
same,half-life,"hGLP-1R male mice, oral, across doses, read-out: terminal T1/2",< 120 min
